Common to all, as to type: biochemical
One assay concerns the target MINK1/MAP4K6 (Homo sapiens, UniProt Q8N4C8). As to the kind of experiment: Kinase selectivity panel, MINK1/MAP4K6. The settings on record: read-out: pIC50 MINK1/MAP4K6 (converted). The text has this: (§1) The data in Table 42 also provides the fold selectivity of the two compounds in favour of MAP4K4 over the tested kinase. The fold selectivity is indicated in parenthesis.

Another assay deals with TNIK/MAP4K7 (Homo sapiens, UniProt Q9UKE5). Nature of the assay: Kinase selectivity panel, TNIK/MAP4K7. To be noted: read-out: pIC50 TNIK/MAP4K7 (converted).
Chain of TNIK/MAP4K7 (Q9UKE5 whole entry): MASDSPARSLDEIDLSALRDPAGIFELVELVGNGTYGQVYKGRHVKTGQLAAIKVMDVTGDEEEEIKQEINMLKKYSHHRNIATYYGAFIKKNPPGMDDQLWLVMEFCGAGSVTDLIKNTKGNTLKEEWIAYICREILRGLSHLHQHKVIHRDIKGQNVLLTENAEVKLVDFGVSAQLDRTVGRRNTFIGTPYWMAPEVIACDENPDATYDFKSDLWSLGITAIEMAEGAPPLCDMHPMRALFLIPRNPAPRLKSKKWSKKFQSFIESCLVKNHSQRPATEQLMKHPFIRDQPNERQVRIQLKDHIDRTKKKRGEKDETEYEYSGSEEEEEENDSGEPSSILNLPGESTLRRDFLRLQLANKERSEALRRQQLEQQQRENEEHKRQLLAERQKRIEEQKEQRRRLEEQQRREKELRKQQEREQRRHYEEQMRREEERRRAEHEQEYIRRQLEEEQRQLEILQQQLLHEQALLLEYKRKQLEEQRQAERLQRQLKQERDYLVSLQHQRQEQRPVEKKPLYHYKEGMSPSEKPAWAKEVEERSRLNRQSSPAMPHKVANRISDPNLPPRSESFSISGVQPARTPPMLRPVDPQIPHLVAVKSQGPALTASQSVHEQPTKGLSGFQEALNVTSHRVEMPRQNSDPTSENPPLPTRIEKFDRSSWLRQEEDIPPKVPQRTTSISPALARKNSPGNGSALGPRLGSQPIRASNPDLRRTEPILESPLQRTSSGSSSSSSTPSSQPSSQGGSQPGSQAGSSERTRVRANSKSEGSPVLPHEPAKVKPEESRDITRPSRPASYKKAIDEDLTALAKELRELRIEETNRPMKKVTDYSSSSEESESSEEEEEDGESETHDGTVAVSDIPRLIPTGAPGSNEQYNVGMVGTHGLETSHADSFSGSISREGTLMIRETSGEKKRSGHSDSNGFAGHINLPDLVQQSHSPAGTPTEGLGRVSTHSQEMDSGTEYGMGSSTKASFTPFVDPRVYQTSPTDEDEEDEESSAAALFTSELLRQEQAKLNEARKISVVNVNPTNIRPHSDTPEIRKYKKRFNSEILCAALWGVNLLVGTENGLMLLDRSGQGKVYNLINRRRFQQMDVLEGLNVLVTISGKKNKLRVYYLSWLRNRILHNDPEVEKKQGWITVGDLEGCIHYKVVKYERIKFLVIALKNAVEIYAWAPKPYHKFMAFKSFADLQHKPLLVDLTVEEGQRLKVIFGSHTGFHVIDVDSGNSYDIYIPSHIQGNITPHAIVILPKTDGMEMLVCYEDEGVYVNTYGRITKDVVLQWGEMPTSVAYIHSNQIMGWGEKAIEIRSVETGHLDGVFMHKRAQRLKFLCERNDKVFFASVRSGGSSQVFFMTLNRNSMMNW
Source text: as §1

In a further assay the target is T1, GCK/MAP4K2 (Homo sapiens, UniProt Q12851).
T1 sequence (Q12851 1-820): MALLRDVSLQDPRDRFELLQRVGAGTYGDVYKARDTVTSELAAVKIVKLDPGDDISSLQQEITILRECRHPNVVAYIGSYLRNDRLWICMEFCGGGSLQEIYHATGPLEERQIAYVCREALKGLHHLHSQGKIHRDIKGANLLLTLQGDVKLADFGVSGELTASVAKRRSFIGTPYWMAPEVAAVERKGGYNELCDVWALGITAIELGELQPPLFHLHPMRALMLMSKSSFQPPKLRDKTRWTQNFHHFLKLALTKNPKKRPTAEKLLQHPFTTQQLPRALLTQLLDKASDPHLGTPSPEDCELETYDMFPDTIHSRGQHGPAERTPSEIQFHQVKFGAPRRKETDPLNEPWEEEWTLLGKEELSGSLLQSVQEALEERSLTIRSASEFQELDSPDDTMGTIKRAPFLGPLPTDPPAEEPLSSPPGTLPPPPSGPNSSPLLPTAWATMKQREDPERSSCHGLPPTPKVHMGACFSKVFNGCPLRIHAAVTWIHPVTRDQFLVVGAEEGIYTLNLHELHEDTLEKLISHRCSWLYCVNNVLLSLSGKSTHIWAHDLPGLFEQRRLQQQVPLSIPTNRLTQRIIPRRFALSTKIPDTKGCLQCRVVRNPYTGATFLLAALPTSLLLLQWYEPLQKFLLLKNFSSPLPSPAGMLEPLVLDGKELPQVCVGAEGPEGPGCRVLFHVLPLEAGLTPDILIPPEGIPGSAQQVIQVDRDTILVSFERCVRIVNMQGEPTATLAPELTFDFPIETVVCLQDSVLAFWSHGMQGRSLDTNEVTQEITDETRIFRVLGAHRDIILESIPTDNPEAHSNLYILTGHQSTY
As to the kind of experiment: Kinase selectivity panel, GCK/MAP4K2.
Source text: as §1

The target of another assay is KHS/MAP4K5 (Homo sapiens, UniProt Q9Y4K4). As to the kind of experiment: Kinase selectivity panel, KHS/MAP4K5.
Chain of KHS/MAP4K5 (Q9Y4K4 whole entry): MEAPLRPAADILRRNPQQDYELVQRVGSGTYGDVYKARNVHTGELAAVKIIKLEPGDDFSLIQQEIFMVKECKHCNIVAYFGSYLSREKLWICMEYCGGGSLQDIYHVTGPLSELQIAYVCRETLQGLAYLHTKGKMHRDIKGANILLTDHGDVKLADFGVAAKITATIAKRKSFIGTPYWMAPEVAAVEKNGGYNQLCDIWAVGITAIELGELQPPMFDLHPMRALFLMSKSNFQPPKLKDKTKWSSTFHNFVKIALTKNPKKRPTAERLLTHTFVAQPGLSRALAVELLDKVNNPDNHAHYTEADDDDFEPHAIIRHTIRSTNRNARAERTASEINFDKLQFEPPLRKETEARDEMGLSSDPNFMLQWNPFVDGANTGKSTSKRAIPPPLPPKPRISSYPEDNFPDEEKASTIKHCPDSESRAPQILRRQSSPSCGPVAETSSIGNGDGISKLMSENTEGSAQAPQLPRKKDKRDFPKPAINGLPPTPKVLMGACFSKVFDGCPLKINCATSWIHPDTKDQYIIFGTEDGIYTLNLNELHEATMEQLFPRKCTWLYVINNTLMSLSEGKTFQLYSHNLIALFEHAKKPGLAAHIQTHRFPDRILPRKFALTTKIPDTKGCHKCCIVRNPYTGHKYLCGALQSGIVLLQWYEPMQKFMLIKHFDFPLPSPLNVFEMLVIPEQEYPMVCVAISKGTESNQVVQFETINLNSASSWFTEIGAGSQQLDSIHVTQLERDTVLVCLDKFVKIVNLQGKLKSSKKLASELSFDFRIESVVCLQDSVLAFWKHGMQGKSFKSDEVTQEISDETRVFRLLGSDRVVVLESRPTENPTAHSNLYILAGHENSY
Source text: as §1

A further assay concerns the target ABL1 (Homo sapiens, UniProt P00519). Nature of the assay: Kinase selectivity panel, ABL1.
Source text: as §1

The next assay concerns the target MLK3/MAP3K11 (Homo sapiens, UniProt Q16584). As to the kind of experiment: Kinase selectivity panel, MLK3/MAP3K11.
Source text: as §1

Chain of MLK3/MAP3K11 (Q16584 whole entry): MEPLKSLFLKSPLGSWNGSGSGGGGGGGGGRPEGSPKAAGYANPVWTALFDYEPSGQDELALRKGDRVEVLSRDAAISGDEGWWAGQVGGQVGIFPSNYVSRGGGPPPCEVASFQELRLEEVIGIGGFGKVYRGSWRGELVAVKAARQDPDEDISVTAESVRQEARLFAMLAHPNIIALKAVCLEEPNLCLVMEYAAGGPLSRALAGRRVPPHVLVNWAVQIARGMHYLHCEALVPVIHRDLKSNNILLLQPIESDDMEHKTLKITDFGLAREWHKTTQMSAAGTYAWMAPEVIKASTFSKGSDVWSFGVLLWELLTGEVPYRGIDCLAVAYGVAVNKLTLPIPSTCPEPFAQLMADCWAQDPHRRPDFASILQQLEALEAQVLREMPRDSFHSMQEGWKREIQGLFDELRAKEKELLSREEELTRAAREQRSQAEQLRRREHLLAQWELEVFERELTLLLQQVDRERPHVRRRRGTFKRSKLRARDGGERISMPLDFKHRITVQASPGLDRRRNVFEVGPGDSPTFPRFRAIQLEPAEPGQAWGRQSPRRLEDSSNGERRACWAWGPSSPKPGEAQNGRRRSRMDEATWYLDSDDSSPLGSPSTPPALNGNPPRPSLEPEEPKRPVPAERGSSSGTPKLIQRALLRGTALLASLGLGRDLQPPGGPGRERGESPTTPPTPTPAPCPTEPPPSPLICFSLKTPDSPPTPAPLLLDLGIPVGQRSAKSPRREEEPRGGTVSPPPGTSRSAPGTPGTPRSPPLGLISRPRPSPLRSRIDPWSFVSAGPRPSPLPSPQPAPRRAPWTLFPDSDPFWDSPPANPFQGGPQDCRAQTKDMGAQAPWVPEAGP
Chain of ABL1 (P00519 whole entry, species assumed): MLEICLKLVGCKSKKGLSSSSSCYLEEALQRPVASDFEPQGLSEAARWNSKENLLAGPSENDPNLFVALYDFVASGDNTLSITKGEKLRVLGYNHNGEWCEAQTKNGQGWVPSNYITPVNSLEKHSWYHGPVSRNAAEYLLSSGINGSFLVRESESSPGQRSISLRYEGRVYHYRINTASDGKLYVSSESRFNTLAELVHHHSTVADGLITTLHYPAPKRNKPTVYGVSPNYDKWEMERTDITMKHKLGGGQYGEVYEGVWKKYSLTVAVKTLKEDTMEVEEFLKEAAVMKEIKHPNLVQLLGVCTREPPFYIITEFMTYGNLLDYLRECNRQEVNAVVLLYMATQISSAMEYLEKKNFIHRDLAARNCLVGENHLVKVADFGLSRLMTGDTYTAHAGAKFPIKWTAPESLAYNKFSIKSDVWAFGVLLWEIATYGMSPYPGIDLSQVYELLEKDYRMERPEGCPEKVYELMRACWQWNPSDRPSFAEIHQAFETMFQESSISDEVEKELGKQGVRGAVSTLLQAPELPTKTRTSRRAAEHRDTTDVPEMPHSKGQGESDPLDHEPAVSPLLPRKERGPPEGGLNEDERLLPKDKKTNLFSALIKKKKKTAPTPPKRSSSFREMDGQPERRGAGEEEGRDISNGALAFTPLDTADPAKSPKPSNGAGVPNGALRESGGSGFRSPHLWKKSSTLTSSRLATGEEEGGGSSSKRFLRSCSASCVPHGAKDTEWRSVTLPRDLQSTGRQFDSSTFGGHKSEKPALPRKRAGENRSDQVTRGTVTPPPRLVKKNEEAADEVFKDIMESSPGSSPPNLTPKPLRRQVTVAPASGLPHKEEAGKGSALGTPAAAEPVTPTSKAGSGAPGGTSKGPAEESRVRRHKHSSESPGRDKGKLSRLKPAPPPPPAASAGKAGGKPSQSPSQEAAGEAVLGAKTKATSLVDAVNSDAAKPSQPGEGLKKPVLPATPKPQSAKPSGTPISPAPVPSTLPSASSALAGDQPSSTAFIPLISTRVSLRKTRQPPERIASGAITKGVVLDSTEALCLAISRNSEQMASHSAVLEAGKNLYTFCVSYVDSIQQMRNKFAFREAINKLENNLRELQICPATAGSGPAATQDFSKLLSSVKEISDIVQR

On to `CC(C)(O)CCOc1ccc(-c2cn(-c3cccnc3)c3nc[nH]c(=O)c23)cc1` [Ex-78, 5-(4-(3-hydroxy-3-methylbutoxy)phenyl)-7-(pyridin-3-yl)-3,7-dihydro-4H-pyrrolo[2,3-d]pyrimidin-4-one], for which the IC50 was 63.1 nM on MINK1/MAP4K6; 126 nM on TNIK/MAP4K7; 1000 nM on GCK/MAP4K2 (read-out: pIC50 GCK/MAP4K2 (converted)); 316 nM on KHS/MAP4K5 (read-out: pIC50 KHS/MAP4K5 (converted)); 7940 nM on ABL1 (read-out: pIC50 ABL1 (converted)); 251 nM on MLK3/MAP3K11 (read-out: pIC50 MLK3/MAP3K11 (converted)). On GCK/MAP4K2 (in favour of MAP4K4), the “fold selectivity MAP4K4 over GCK/MAP4K2” value is reported as “(32) fold”. For the same molecule, the “fold selectivity MAP4K4 over KHS/MAP4K5” value on KHS/MAP4K5 (in favour of MAP4K4) is recorded as “(10) fold”. Also, the “fold selectivity MAP4K4 over ABL1” value on ABL1 (in favour of MAP4K4) is listed as “(251) fold”. Besides, the “fold selectivity MAP4K4 over MLK3/MAP3K11” value at MLK3/MAP3K11 (in favour of MAP4K4) is listed as “(8) fold”.

For the origin of these results see US12247045B2, “MAP4K4 inhibitors” (Imperial College Innovations Limited, priority 2018, dated 2025).
